Results on 36 compounds are retold here after a melting point compilation (Tetko et al.; mined from patent text by program, amines drawn as free bases though some values may be those of a salt).

For `COc1ccc(-c2ccc(C(=O)O)cc2)cc1`, the melting point was 250 to 254 °C.

Regarding `O=C(CCCN1CCCCC1)c1ccc2c(c1)Cc1cc(C(=O)CCCN3CCCCC3)ccc1O2`, the melting point was 115 to 117 °C.

`N#Cc1cc(C(=O)N2CCC[C@H](c3nc(-c4ccc(F)cc4)no3)C2)ccc1F` gave a melting point of 144 to 146 °C.

As to `CC(Cl)(Cl)C(NC(=O)c1cccc(F)c1)NC(=NC#N)Nc1ccc(Cl)nc1` (stereo unspecified), the melting point lay within 191 to 192 °C.

In turn, `Cc1cc(F)ccc1-c1nc(OCCNC(=O)OC(C)(C)C)nc2c1ccc(=O)n2-c1c(F)cccc1F` yielded a melting point of 103 to 105 °C.

On to `O=C(O)C=C1CCC(n2nc(-c3c(-c4ccccc4)nn4ccccc34)ccc2=O)CC1` (stereo unspecified), for which the melting point is 188 to 190 °C.

With `CC(=O)Nc1nc2c(Oc3cc(-c4ccc(C(F)(F)F)nc4NC4CCN(C(C)C)C4)ncn3)cccc2s1` (stereo unspecified), the melting point was 140 to 141 °C.

With `CC(=O)OC1(c2ccc(Cl)cc2)CCN(CCCC(=O)c2ccc(F)cc2)CC1`, the melting point was in the range of 106 to 110 °C.

For `Nc1nc2c(s1)CCN(CC=Cc1cccc(O)c1)CC2`, the melting point was 85 to 95 °C.

With `CCC1Oc2ccc(Br)cc2N(CC(O)CO)C1=O` (stereo unspecified), the melting point is 91 °C.

Regarding `C[Si](C)(C)C1=CC(=O)C([Si](C)(C)C)=CC1=O`, the melting point was 180 °C.

`Cc1cc(C(C)NC(=O)NO)c(C)s1` (stereo unspecified): the melting point lay in the range of 124 to 126 °C.

`CCN(CC)c1ccc(C2(c3ccc(N(C)C)cc3N(C)C)OC(=O)c3cc(N(C)C)ccc32)cc1` (stereo unspecified) came in with a melting point of 123 to 125 °C.

For the compound `CC(C)N1CC(CO)CC2c3cccc4[nH]cc(c34)CC21` (stereo unspecified), the melting point was 192 to 194 °C.

As for `CC(=O)Nc1ncc(C)cc1C(C)=O`, the melting point was 99 to 100 °C.

Turning to `CC(C)(ON=C(C(=O)O)c1ccco1)C(N)=O`, the melting point lay within 160 to 162 °C.

Take `CC1CC(=O)NN=C1c1ccc(N2CCN(c3ncccn3)CC2)c([N+](=O)[O-])c1` (stereo unspecified): the melting point fell in the range of 232 to 233 °C.

For the compound `Cn1c(=O)c2c(-c3nc(C4CC4)no3)ncn2c2cccnc21`, the melting point was 266 to 269 °C.

On to `Cc1cc(-c2cn[nH]c2N)ccn1`, for which the melting point was 230 °C.

The compound `CN=c1nc(N)nc2sc3cc(OC)ccc3n12` gave a melting point of 208 to 209 °C.

The compound `O=C1C2CCCCC2C2(c3ccccc3)NCCN12` (stereo unspecified) had a melting point of 170 °C.

On to `O=C(c1ccccc1)C1CCN(CCS(=O)c2ccc3[nH]c(=O)oc3c2)CC1` (stereo unspecified), for which the melting point was 68 to 72 °C.

With `CCOC(=O)C1CC2=C(CO1)C(=O)c1cc3ccccc3c(OC(C)=O)c1C2=O` (stereo unspecified), the melting point is 196 to 198 °C.

`CCCOCCOC(=O)C1=C(C)NC(C)=C(c2nc(CCl)no2)C1c1cccc([N+](=O)[O-])c1` (stereo unspecified) showed a melting point of 129 to 130 °C.

For the compound `O=C1NC(=O)C(c2c[nH]c3ccccc23)C1c1cc2c3c(ccn3CCC2)c1` (stereo unspecified), the melting point was 141 to 145 °C.

`O=C(O)c1ccc(-c2nc(-c3ccncc3)cs2)cc1` gave a melting point above 300 °C.

Consider `COc1ccc(NS(=O)(=O)c2cc(OC)c(OC)c(OC)c2)cc1O`, for which the melting point was in the range of 145 to 146 °C.

`CCOC(=O)c1ccc(CO)cn1` yielded a melting point of 64 °C.

`Cc1ncc(-c2ccc(Cl)cc2)cc1C#N`: the melting point was in the range of 158 to 159 °C.

`COc1nc2ccc(Cl)cc2nc1Sc1nnc(C)s1`: the melting point is 186 to 188 °C.

For `COC(=O)C1(C(=O)O)CCc2cc(C3CCCCC3)c(Cl)cc21` (stereo unspecified), the melting point fell in the range of 139 to 142 °C.

As to `Nc1nc(C#Cc2ccccc2)cc(-c2ccccc2)n1`, the melting point was 136 to 138 °C.

In turn, `COC(=O)c1ccc(NCc2ccc(F)cc2)cn1` showed a melting point of 107 to 108 °C.

`Cc1cc(-c2ccc(C(F)(F)F)cc2)cc(-c2ccnc(-c3ccc(S(N)(=O)=O)s3)c2)n1`: the melting point was above 250 °C.

In turn, `O=c1c2cc(Cl)ccc2nc2n1CCN2Cc1ccccc1Cl` came in with a melting point of 173 to 174 °C.

`Cc1nn(-c2ccc(C(F)(F)F)cn2)cc1COc1cc(/C=C/C(=O)O)n(C)n1` had a melting point of 208 to 209 °C.

By melting point is commonly meant the temperature, or range, at which the solid turns liquid.
